In patent publication US20090082329A1 (AVENTIS PHARMA S.A., priority 2006, published 2009):
Where two headings read alike, the source gives them in different places.

Columns and labels:
[1] = molecular target: T1, human cytoplasmic domain of IGF-1R (Homo sapiens, UniProt P08069); test: Kinase IGF-1R test: inhibition of autophosphorylation of the enzyme (HTRF); format: biochemical; conditions: ATP 120 μM
T1 construct: The human cytoplasmic domain of IGF-1R was cloned by fusion with glutathione S-transferase (GST); made in house; host or cells: SF21 insect cells (baculovirus, pFastBac-GST)
T1 sequence (P08069 960-1367 limits assumed): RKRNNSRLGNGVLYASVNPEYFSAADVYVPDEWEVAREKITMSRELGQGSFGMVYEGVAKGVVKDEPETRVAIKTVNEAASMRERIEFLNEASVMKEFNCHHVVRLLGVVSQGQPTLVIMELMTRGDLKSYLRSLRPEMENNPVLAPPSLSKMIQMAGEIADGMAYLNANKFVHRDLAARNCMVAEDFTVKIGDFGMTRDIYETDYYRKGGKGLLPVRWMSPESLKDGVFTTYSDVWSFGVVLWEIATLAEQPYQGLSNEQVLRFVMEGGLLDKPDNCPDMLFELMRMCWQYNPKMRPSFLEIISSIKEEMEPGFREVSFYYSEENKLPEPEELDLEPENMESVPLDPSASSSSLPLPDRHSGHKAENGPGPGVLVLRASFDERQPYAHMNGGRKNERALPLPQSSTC
Outline: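 GST-fused human IGF-1R cytoplasmic domain from Sf21 cells (5 nM) preincubated with 1/3-step compound dilutions for 30 or 90 min in pH 7.5 Hepes/MnCl2 buffer, ≤1% DMSO. Autophosphorylation started with 120 μM ATP, stopped after 5 min; HTRF (anti-GST XL665/Eu-anti-phosphotyrosine) read, IC50 from inhibition vs log concentration.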

IGF-1R in MCF7 cells [2] = molecular target: T2, IGF-1R in MCF7 cells (Homo sapiens, UniProt P08069); test: Autophosphorylation of IGF-1R in MCF7 cells after stimulation with IGF-1 (ELISA); format: cell-based; set-up: The autophosphorylation of IGF1R in the IGF1-induced cells is evaluated by means of an ELISA technique; endogenous in cells; host or cells: MCF-7 cells; conditions: MCF-7 cells, compound added one hour before stimulation with IGF1; read-out: Test B IC50
T2 sequence (P08069 31-1367): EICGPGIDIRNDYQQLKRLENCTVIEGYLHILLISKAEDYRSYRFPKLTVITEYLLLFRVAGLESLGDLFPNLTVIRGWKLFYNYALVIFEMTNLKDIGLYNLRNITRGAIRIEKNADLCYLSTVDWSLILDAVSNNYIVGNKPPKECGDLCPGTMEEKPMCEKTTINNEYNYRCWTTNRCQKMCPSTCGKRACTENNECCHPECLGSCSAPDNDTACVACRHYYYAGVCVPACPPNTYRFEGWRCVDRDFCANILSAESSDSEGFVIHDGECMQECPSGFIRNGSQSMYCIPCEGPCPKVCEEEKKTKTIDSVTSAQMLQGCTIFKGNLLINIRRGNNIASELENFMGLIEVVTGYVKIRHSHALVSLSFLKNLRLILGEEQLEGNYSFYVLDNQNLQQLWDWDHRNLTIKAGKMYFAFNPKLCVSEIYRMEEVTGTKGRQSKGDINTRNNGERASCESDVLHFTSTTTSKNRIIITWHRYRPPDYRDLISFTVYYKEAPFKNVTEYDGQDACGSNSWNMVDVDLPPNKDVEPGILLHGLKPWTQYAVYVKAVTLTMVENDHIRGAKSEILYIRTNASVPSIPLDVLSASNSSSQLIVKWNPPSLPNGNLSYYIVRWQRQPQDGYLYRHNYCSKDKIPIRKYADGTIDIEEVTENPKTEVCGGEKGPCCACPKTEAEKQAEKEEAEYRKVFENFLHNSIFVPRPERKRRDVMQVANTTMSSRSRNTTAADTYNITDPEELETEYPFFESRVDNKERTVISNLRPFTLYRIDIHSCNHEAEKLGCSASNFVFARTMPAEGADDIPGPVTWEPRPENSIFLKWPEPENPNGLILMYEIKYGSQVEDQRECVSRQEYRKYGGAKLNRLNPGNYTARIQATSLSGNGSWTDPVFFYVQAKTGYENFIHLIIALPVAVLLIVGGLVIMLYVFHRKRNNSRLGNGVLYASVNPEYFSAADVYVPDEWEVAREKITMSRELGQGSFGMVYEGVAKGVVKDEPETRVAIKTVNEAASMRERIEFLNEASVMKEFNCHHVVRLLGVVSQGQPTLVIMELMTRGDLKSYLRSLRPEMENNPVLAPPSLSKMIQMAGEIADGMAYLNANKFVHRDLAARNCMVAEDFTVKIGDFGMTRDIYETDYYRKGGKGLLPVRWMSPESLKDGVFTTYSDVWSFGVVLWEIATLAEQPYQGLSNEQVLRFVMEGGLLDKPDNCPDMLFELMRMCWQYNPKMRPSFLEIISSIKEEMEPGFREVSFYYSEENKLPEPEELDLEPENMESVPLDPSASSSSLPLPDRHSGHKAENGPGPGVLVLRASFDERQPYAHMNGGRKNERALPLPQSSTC
Protocol: (§1) B) Measurement of the Autophosphorylation of IGF-1R in MCF7 Cells after Stimulation with IGF-1
(§2) Cell Culturing and Execution of the Test:
(§3) The autophosphorylation of IGF1R in the IGF1-induced cells is evaluated by means of an ELISA technique (Enzyme Linked ImmunoSorbent Assay). The MCF-7 are seeded at 60 000 cells per well in 6-well plates and incubated at 37° C., 5% CO2 in medium containing 10% serum. After one night in 10% serum, the cells are deprived of serum for 24 hours. The compounds are added to the medium one hour before stimulation with IGF1. After 10 minutes of stimulation with IGF1, the cells are lysed with a buffer (Hepes 50 mM pH 7.6, Triton X100 1%, orthovanadate 2 mM, protease inhibitor cocktail). The cell lysates are incubated on a 96-well plate precoated with an anti-IGF1R antibody, followed by incubation with an anti-phosphotyrosine antibody coupled to the enzyme peroxidase. The level of peroxidase activity (measured by OD with a luminescent substrate) reflects the phosphorylation status of the receptor.
(§4) (i) The tests are performed in duplicate and the mean of the two tests is calculated.
(§5) (ii) The value of the signal of the maximum response is calculated from the positive control: cells stimulated with IGF1 without compound.
(iii) Value of the signal of the minimum response is calculated from the negative control: cells not stimulated with IGF1 without compound. […]

MEF-IGF1R cells = test: Proliferation/viability of MEF-IGF1R (Thymidine [14C] incorporation); format: cell-based; conditions: rhIGF1 100 ng/mL, incubation 72 hours, read-out: Test C IC50
Outline: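 Serum-starved (24 h) MEF cells stably expressing human IGF-1R were exposed to compound with rhIGF1 (100 ng/mL) and [14C]thymidine for 72 h at 37 °C. Incorporation counted by scintillation; IC50 from 10 concentrations in duplicate, normalised to IGF1-stimulated (100%) and unstimulated (0%) controls, non-linear regression.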

IGF-1R in MCF7 cells [3] = molecular target: T2, IGF-1R in MCF7 cells; test: Autophosphorylation of IGF-1R in MCF7 cells after stimulation with IGF-1 (ELISA); format: cell-based; set-up: endogenous in cells; host or cells: MCF-7 cells; conditions: MCF-7 cells, compound added one hour before stimulation with IGF1; read-out: Test B IC50
Protocol: as §1, §2, §3, §4, §5
(iii) Value of the signal of the minimum response is calculated from the negative control: cells not stimulated with IGF1 without compound.
(iv) By using these values as maximum (100%) and minimum (0%), respectively, the data were normalized so as to give a percentage of the maximum response.
(v) A curve of dose response is plotted and the IC50 (the concentration of which the compound induces a 50% decrease in the signal) of the compound is calculated by non-linear regression analysis.

[4] = preincubation 30 minutes with 5 nM enzyme, read-out: Test A 30′ IC50
[5] = preincubation 90 minutes with 5 nM enzyme, read-out: Test A 90′ IC50

| SMILES | IC50 [1, 4] [nM] | IC50 [1, 5] [nM] | IC50 (IGF-1R in MCF7 cells [2]) [nM] | IC50 (IGF-1R in MCF7 cells [3]) [nM] | IC50 (MEF-IGF1R cells) [nM] |
| --- | --- | --- | --- | --- | --- |
| CC1(C)C(=O)N(c2ccc(SC(F)(F)F)cc2)C(=O)N1Cc1ccnc(Nc2cccnc2Cl)c1 [Example 40E, 1-({2-[(2-chloropyridin-3-yl)amino]pyridin-4-yl}-methyl)-5,5-dimethyl-3-{4-[(trifluoromethyl)thio]phenyl}imidazolidine-2,4-dione] | 10 to 100 | 10 to 100 |  | 10 to 100 | 10 to 100 |
| COC(=O)Nc1cc(CN2C(=O)N(c3ccc(SC(F)(F)F)cc3)C(=O)C2(C)C)ccn1 [Example 40L, methyl {4-[(5,5-dimethyl-2,4-dioxo-3-{4-[(tri-fluoromethyl)thio]phenyl}imidazolidin-1-yl)methyl]pyridin-2-yl}carbamate] | 10 to 100 | < 10 |  | 10 to 100 | > 100 |

Continued, in another order:

| IC50 [1, 4] [nM] | IC50 [1, 5] [nM] | IC50 (IGF-1R in MCF7 cells [2]) [nM] | IC50 (IGF-1R in MCF7 cells [3]) [nM] | SMILES | IC50 (MEF-IGF1R cells) [nM] |
| --- | --- | --- | --- | --- | --- |
| 10 to 100 | < 10 | < 10 |  | CC1(C)C(=O)N(c2ccc(SC(F)(F)F)cc2)C(=O)N1Cc1ccnc(NC(N)=O)c1 [Example 40A] | 10 to 100 |
| > 100 | 10 to 100 |  | > 100 | CC1(C)C(=O)N(c2ccc(SC(F)(F)F)cc2)C(=O)N1Cc1ccnc(Nc2ccc(Cl)nc2)c1 [Example 40F, 1-({2-[(6-chloropyridin-3-yl)amino]pyridin-4-yl}-methyl)-5,5-dimethyl-3-{4-[(trifluoromethyl)thio]phenyl}imidazolidine-2,4-dione] | > 100 |
| 10 to 100 | 10 to 100 |  | 10 to 100 | CC1(C)C(=O)N(c2ccc(SC(F)(F)F)cc2)C(=O)N1Cc1ccnc(Nc2ccc(O)nc2)c1 [Example 40G, 1-({2-[(6-hydroxypyridin-3-yl)amino]pyridin-4-yl}-methyl)-5,5-dimethyl-3-{4-[(trifluoromethyl)thio]phenyl}imidazolidine-2,4-dione] | > 100 |
